Measured values published in ChEMBL document CHEMBL5465560, “Selectivity Literature for EUbOPEN Chemogenomic Library” (2024).

What was measured:
[1] = molecular target: Serine/threonine-protein kinase mTOR (Homo sapiens, UniProt P42345); assay: Selectivity interaction (KinomeScan (DiscoverX)) EUB0001049a MTOR; details: at 1 µM
[2] = molecular target: Serine/threonine-protein kinase 10 (Homo sapiens) (UniProt O94804); assay: Selectivity interaction (KinomeScan (DiscoverX)) EUB0001049a STK10; details: at 1 µM
[3] = molecular target: Non-receptor tyrosine-protein kinase TYK2 (Homo sapiens, UniProt P29597); assay: Selectivity interaction (Kinase panel (Carna Biosciences)) EUB0001542aTs TYK2; details: at 1 µM
[4] = molecular target: BMP-2-inducible protein kinase (Homo sapiens) (UniProt Q9NSY1); assay: Selectivity interaction (KinomeScan (DiscoverX)) EUB0000092b BMP2K; details: at 10 µM
[5] = molecular target: T1, Dual specificity mitogen-activated protein kinase kinase 4 (Homo sapiens) (UniProt P45985); assay: Selectivity interaction (Upstate Kinase Profiler service (Millipore)) EUB0000056c MAP2K4; details: at 1 µM
T1 sequence (whole entry): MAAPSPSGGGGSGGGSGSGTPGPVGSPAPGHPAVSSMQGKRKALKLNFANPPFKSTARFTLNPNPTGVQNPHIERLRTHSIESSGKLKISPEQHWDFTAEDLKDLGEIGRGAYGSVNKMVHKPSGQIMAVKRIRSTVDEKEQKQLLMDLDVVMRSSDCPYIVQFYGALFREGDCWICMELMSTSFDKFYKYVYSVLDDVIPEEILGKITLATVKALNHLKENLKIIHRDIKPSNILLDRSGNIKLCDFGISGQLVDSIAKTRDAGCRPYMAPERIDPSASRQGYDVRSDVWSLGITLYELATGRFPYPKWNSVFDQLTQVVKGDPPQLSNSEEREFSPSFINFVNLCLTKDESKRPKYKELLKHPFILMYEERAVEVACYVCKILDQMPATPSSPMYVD

[6] = molecular target: Tyrosine-protein kinase Lyn (Homo sapiens, UniProt P07948); assay: Selectivity interaction (KinomeScan (DiscoverX)) EUB0000045b LYN
[7] = molecular target: Insulin-like growth factor 1 receptor (Homo sapiens, UniProt P08069); assay: Selectivity interaction (KinomeScan (DiscoverX)) EUB0000655a IGF1R; details: at 10 µM
[8] = molecular target: T2, Ephrin type-A receptor 8 (Homo sapiens) (UniProt P29322); assay: Selectivity interaction (KinomeScan (DiscoverX)) EUB0001619a EPHA8; details: at 1 µM
T2 sequence (whole entry): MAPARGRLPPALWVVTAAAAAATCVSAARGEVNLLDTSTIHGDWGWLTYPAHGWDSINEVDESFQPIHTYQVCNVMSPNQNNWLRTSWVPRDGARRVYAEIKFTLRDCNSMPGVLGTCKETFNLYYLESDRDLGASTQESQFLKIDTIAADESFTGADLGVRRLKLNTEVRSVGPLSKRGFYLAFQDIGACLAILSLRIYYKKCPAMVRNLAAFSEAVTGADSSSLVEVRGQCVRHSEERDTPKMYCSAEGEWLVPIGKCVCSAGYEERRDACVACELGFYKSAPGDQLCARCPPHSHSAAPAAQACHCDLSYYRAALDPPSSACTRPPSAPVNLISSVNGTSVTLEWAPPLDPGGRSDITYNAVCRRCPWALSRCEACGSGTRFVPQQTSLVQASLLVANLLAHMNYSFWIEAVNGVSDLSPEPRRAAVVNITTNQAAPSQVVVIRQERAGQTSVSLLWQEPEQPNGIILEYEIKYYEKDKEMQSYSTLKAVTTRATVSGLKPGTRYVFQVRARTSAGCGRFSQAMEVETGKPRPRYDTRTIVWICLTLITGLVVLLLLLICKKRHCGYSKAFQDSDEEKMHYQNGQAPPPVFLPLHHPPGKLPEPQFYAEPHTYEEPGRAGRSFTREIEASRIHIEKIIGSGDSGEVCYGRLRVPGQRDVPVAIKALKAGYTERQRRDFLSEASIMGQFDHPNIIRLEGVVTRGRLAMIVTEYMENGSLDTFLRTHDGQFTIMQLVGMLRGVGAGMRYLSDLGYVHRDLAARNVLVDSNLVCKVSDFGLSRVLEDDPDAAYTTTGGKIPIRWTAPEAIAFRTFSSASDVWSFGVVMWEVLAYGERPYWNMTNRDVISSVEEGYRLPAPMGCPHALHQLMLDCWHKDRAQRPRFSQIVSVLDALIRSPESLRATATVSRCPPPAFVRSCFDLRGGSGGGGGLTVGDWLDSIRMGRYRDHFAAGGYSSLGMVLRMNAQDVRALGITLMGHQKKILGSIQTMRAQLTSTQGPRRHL

[9] = molecular target: ALK tyrosine kinase receptor (Homo sapiens, UniProt Q9UM73); assay: Selectivity interaction (KinomeScan (DiscoverX)) EUB0001619a ALK; details: at 1 µM
[10] = molecular target: Mitogen-activated protein kinase 14 (Homo sapiens, UniProt Q16539); assay: Selectivity interaction (KinomeScan (DiscoverX)) EUB0000607a MAPK14; details: at 10 µM
[11] = molecular target: T3, Ephrin type-B receptor 4 (Homo sapiens) (UniProt P54760); assay: Selectivity interaction (KinomeScan (DiscoverX)) EUB0000607a EPHB4; details: at 10 µM
T3 sequence (whole entry): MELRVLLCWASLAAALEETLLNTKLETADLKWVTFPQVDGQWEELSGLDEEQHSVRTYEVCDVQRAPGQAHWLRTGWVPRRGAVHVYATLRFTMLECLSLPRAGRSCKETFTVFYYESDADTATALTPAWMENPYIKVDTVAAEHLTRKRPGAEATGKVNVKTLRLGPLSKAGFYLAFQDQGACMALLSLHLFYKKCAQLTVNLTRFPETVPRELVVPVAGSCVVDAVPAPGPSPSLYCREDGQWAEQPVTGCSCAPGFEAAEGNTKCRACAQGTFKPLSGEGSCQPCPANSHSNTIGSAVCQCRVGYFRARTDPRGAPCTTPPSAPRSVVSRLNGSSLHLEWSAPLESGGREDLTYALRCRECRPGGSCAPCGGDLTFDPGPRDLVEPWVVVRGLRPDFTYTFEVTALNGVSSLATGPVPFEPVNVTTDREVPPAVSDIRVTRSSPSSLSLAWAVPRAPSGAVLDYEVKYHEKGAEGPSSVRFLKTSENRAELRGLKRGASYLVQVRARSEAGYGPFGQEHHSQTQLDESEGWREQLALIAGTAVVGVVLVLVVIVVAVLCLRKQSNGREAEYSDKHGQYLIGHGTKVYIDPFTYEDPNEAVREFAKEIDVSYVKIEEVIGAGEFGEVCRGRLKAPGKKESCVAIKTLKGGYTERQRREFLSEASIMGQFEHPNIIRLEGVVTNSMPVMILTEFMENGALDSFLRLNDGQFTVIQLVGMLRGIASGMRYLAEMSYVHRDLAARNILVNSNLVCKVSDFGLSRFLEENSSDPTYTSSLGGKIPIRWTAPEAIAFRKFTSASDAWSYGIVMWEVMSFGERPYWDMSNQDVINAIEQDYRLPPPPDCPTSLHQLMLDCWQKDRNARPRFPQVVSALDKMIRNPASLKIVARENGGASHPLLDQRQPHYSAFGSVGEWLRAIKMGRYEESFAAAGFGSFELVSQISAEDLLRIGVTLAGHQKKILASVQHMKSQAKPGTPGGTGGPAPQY

Chain of Tyrosine-protein kinase Lyn (P07948 2-512 limits assumed): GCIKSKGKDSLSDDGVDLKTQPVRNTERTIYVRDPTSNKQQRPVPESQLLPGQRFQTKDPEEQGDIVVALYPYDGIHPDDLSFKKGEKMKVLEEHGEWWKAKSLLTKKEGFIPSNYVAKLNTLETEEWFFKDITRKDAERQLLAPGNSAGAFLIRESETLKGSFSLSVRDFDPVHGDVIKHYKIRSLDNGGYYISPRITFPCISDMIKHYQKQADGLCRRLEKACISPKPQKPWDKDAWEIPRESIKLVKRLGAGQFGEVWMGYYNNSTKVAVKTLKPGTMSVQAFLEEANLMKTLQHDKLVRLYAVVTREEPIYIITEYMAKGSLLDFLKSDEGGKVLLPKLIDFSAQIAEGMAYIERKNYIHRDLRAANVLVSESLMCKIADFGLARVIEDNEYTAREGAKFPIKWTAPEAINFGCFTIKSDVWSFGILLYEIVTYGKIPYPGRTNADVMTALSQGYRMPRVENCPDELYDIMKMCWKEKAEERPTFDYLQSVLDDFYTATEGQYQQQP
Chain of BMP-2-inducible protein kinase (Homo sapiens) (Q9NSY1 whole entry, looked up): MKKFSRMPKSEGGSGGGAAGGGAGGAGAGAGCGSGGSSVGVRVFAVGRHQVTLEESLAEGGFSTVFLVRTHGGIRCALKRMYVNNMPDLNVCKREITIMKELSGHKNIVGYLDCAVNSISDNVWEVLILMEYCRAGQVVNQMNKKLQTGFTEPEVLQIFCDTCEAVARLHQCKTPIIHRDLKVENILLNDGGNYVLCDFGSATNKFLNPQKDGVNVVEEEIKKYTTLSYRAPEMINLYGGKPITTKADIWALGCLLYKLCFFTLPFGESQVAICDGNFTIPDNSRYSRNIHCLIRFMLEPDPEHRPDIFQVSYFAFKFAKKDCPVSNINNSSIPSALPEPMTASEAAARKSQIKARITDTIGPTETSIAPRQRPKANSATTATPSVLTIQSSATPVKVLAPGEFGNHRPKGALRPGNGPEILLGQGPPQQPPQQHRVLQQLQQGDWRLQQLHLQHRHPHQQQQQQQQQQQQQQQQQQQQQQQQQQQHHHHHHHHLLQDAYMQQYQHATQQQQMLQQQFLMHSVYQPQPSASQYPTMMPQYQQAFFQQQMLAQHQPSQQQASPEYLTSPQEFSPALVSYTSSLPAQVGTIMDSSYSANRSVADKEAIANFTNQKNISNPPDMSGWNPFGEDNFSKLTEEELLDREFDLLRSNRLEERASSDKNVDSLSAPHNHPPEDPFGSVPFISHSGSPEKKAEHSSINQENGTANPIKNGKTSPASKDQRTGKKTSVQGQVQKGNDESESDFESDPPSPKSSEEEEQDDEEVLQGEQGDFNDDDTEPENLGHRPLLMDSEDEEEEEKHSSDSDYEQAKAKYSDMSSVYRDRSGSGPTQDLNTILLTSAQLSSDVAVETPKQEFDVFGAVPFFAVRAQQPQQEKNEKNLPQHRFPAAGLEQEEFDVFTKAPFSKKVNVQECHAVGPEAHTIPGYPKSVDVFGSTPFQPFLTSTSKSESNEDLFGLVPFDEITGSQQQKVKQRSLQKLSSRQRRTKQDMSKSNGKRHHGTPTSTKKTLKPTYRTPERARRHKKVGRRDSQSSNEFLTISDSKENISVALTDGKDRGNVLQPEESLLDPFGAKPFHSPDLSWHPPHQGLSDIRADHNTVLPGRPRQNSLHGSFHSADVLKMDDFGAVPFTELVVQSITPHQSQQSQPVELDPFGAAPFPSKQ
Chain of Mitogen-activated protein kinase 14 (Q16539 whole entry): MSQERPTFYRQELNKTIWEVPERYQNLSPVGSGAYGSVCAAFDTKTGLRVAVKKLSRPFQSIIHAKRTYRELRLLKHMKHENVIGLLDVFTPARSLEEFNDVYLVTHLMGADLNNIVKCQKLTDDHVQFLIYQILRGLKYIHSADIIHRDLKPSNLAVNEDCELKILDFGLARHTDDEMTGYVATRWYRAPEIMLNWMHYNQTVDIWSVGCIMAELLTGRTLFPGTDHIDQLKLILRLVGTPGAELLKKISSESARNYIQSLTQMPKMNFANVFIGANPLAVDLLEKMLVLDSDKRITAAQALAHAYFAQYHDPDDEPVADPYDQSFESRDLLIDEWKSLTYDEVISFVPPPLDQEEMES
Chain of Insulin-like growth factor 1 receptor (P08069 31-736 limits assumed): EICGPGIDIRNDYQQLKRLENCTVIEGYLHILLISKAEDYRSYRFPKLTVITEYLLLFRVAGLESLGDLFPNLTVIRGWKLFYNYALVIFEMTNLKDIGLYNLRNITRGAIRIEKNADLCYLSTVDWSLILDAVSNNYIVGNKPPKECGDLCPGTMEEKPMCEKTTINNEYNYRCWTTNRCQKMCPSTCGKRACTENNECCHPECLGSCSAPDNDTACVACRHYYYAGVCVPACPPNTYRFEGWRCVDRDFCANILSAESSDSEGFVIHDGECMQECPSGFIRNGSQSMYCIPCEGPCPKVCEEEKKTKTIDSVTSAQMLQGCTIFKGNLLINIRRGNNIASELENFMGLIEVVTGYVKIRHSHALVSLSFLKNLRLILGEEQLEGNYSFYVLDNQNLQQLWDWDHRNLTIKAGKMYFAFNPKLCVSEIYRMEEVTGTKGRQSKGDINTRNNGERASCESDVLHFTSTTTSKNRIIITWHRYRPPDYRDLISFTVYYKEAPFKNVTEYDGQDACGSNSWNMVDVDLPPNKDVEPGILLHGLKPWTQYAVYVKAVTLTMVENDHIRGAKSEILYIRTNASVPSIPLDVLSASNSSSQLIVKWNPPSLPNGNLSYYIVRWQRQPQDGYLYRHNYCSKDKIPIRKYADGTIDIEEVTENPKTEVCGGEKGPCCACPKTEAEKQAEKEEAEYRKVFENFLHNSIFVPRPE
Chain of Insulin-like growth factor 1 receptor (P08069 741-1367 limits assumed): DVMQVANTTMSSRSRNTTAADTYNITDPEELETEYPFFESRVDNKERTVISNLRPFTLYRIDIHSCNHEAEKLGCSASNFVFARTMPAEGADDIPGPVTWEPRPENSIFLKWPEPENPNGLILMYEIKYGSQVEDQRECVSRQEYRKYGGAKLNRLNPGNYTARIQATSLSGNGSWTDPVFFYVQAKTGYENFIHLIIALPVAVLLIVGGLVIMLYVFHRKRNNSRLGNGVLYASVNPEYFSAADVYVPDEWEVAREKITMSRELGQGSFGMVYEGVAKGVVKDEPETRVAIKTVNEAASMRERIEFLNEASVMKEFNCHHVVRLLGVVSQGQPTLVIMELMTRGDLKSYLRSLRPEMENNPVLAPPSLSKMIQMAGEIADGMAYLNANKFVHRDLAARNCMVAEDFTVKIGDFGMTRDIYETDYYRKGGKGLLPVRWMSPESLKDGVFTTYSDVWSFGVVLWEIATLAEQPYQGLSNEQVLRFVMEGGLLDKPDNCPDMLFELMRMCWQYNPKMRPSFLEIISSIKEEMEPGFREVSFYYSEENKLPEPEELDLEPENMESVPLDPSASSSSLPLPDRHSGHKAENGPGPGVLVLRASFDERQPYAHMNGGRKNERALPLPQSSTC
Chain of ALK tyrosine kinase receptor (Q9UM73 19-1620 limits assumed): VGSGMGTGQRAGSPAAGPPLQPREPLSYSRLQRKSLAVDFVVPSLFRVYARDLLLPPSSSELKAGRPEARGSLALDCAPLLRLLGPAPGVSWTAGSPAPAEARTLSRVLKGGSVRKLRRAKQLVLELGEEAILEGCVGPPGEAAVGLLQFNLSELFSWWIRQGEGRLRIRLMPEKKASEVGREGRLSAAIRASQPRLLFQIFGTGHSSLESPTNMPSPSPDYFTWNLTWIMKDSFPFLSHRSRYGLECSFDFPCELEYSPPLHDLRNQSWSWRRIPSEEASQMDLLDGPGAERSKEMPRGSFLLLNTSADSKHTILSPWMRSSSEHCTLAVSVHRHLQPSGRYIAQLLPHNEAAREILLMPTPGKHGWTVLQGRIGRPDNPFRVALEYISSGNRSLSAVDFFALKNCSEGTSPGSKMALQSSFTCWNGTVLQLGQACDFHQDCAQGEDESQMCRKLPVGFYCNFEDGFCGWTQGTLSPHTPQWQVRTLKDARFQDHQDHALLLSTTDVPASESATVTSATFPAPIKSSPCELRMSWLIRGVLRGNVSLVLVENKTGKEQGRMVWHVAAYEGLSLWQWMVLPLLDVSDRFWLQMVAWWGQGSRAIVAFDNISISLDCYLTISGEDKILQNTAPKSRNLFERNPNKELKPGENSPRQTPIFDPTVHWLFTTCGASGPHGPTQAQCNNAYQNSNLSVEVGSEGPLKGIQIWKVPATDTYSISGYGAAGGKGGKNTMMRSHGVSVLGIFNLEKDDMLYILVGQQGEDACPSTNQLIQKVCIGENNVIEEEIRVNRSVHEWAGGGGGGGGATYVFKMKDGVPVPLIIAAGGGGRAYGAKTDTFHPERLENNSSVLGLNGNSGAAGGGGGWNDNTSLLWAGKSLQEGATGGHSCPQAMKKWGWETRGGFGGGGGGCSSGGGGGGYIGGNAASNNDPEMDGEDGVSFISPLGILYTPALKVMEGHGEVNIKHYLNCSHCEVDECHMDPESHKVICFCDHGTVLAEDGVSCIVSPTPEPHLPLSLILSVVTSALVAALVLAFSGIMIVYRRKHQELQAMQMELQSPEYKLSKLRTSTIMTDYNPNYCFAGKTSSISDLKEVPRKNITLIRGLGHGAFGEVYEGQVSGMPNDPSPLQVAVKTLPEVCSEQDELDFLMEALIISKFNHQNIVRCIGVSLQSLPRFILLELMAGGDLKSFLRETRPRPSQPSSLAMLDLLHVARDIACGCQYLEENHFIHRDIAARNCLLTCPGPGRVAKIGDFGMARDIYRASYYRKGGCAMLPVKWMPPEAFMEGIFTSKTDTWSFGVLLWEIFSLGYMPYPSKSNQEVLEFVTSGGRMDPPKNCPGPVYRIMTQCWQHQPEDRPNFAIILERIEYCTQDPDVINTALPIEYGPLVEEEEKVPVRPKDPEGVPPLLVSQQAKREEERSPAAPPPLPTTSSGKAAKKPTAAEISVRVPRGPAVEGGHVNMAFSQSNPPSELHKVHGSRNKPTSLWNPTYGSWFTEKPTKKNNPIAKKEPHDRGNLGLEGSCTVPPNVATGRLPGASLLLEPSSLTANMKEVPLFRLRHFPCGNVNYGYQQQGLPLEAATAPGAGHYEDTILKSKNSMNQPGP

Compound `COc1cc(Nc2nc(C)cc(-c3cnn4nc(OC)ccc34)n2)cc(C(F)(F)F)c1` has a % of control [1] of 100% and a % of control [2] of 86%.

For `Cn1cc(Nc2nccc(N3CC4CCC(C3)N4C(=O)[C@@H]3CC3(F)F)n2)cn1`, the % of inhibition [3] was 98%.

For `CCC(=O)N1CCN(c2ccc(-n3c(=O)ccc4cnc5ccc(-c6cnc7ccccc7c6)cc5c43)cc2C(F)(F)F)CC1`, the % of control [4] was 100%.

Work on `Cc1ccc(-c2ccc3c(ccc4sc5c(c43)NC[C@@H](C)NC5=O)n2)cn1` yielded a % of inhibition [5] of 19%.

In the case of `C=CC(=O)Nc1cc(-n2c(=O)ccc3cnc4ccc(-c5ccc(NS(C)(=O)=O)cc5)cc4c32)ccc1C`, the % of control ([6]; at 1 µM) is reported as 92% and the % of control ([6]; at 10 µM) is reported as 91%.

`CN(C)CCOc1ccc(-c2nc(-c3ccncc3)c(-c3ccc4c(c3)CC/C4=N\O)[nH]2)cc1` showed a % of control [7] of 100%.

Compound `N#Cc1cccc(-c2c[nH]c3ncnc(N4CCOCC4)c23)c1` has a % of control [8] of 100% and a % of control [9] of 100%.

With `CNC(=O)Nc1ccc(-c2nc(N3CC4CCC(C3)O4)c3cnn(C4CCC5(CC4)OCCO5)c3n2)cc1` the % of control [10] was 100% and the % of control [11] was 100%.
